By viability, T/C is commonly meant the result in the treated group divided by that in the control group, in per cent.
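Further: spheroids exposed to compounds for seven days; 100% = DMSO vehicle control viability.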

One assay relates to 889142-216-R-J1-PDC complex spheroid viability. Put plainly: Anticancer human tumor 889142-216-R-J1-PDC patient-derived bladder carcinoma cell line growth inhibition [POLQ]. The conditions noted are these: second compound 3.16 µM; first compound 0.1 µM; stronger effect = lower value. The gist of the method: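 Complex spheroid viability model combining PDC tumour cells with endothelial (HUVEC) and MSC stromal cells. Novobiocin, ART-558 or RP6685 were tested singly and in combination with standard and investigational anticancer drugs. Each was titrated in half-log steps from near clinical Cmax, or from 10 microM where Cmax was unknown.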
Take `C=CCn1c(=O)c2cnc(Nc3ccc(N4CCN(C)CC4)cc3)nc2n1-c1cccc(C(C)(C)O)n1` + COC1C(OC(N)=O)C(O)C(Oc2ccc3c(O)c(NC(=O)c4ccc(O)c(CC=C(C)C)c4)c(=O)oc3c2C)OC1(C)C: the viability, T/C is 108%.
Consider `CNCc1ccc(-c2[nH]c3cc(F)cc4c3c2CCNC4=O)cc1` + COC1C(OC(N)=O)C(O)C(Oc2ccc3c(O)c(NC(=O)c4ccc(O)c(CC=C(C)C)c4)c(=O)oc3c2C)OC1(C)C, for which the viability, T/C is 106%.
With `Nc1ccn(C2OC(CO)C(O)C2(F)F)c(=O)n1` (configuration not stated) + COC1C(OC(N)=O)C(O)C(Oc2ccc3c(O)c(NC(=O)c4ccc(O)c(CC=C(C)C)c4)c(=O)oc3c2C)OC1(C)C, the viability, T/C was 52.4%.
Same read-out and setting: next, `O=c1[nH]cc(F)c(=O)[nH]1` + COC1C(OC(N)=O)C(O)C(Oc2ccc3c(O)c(NC(=O)c4ccc(O)c(CC=C(C)C)c4)c(=O)oc3c2C)OC1(C)C: 90.2%.

The same assay, now with this note: second compound 3.16 µM; first compound 0.316 µM; stronger effect = lower value.
As to `C=CCn1c(=O)c2cnc(Nc3ccc(N4CCN(C)CC4)cc3)nc2n1-c1cccc(C(C)(C)O)n1` + COC1C(OC(N)=O)C(O)C(Oc2ccc3c(O)c(NC(=O)c4ccc(O)c(CC=C(C)C)c4)c(=O)oc3c2C)OC1(C)C, the viability, T/C is 64.5%.
Turning to `CNCc1ccc(-c2[nH]c3cc(F)cc4c3c2CCNC4=O)cc1` + COC1C(OC(N)=O)C(O)C(Oc2ccc3c(O)c(NC(=O)c4ccc(O)c(CC=C(C)C)c4)c(=O)oc3c2C)OC1(C)C, the viability, T/C is 92%.
The same measure, in the same setting: next, `Nc1ccn(C2OC(CO)C(O)C2(F)F)c(=O)n1` (configuration not stated) + COC1C(OC(N)=O)C(O)C(Oc2ccc3c(O)c(NC(=O)c4ccc(O)c(CC=C(C)C)c4)c(=O)oc3c2C)OC1(C)C: 43.7%.
Turning to `O=c1[nH]cc(F)c(=O)[nH]1` + COC1C(OC(N)=O)C(O)C(Oc2ccc3c(O)c(NC(=O)c4ccc(O)c(CC=C(C)C)c4)c(=O)oc3c2C)OC1(C)C, the viability, T/C is 73.3%.

Staying with this assay, now noted: second compound 3.16 µM; first compound 1 µM; stronger effect = lower value.
Regarding `C=CCn1c(=O)c2cnc(Nc3ccc(N4CCN(C)CC4)cc3)nc2n1-c1cccc(C(C)(C)O)n1` + COC1C(OC(N)=O)C(O)C(Oc2ccc3c(O)c(NC(=O)c4ccc(O)c(CC=C(C)C)c4)c(=O)oc3c2C)OC1(C)C, the viability, T/C was 50.2%.
On to `CNCc1ccc(-c2[nH]c3cc(F)cc4c3c2CCNC4=O)cc1` + COC1C(OC(N)=O)C(O)C(Oc2ccc3c(O)c(NC(=O)c4ccc(O)c(CC=C(C)C)c4)c(=O)oc3c2C)OC1(C)C, for which the viability, T/C is 83.9%.
Take `Nc1ccn(C2OC(CO)C(O)C2(F)F)c(=O)n1` (configuration not stated) + COC1C(OC(N)=O)C(O)C(Oc2ccc3c(O)c(NC(=O)c4ccc(O)c(CC=C(C)C)c4)c(=O)oc3c2C)OC1(C)C: the viability, T/C was 43.7%.
Same read-out and setting: next, `O=c1[nH]cc(F)c(=O)[nH]1` + COC1C(OC(N)=O)C(O)C(Oc2ccc3c(O)c(NC(=O)c4ccc(O)c(CC=C(C)C)c4)c(=O)oc3c2C)OC1(C)C: 79.3%.

The same assay, now with this note: second compound 3.16 µM; first compound 3.16 µM; stronger effect = lower value.
On to `CNCc1ccc(-c2[nH]c3cc(F)cc4c3c2CCNC4=O)cc1` + COC1C(OC(N)=O)C(O)C(Oc2ccc3c(O)c(NC(=O)c4ccc(O)c(CC=C(C)C)c4)c(=O)oc3c2C)OC1(C)C, for which the viability, T/C is 93.2%.
For the compound `Nc1ccn(C2OC(CO)C(O)C2(F)F)c(=O)n1` (configuration not stated) + COC1C(OC(N)=O)C(O)C(Oc2ccc3c(O)c(NC(=O)c4ccc(O)c(CC=C(C)C)c4)c(=O)oc3c2C)OC1(C)C, the viability, T/C is 38.1%.
Regarding `O=c1[nH]cc(F)c(=O)[nH]1` + COC1C(OC(N)=O)C(O)C(Oc2ccc3c(O)c(NC(=O)c4ccc(O)c(CC=C(C)C)c4)c(=O)oc3c2C)OC1(C)C, the viability, T/C is 78.9%.

The same assay, now with this note: second compound 3.16 µM; first compound 10 µM; stronger effect = lower value.
Consider `CNCc1ccc(-c2[nH]c3cc(F)cc4c3c2CCNC4=O)cc1` + COC1C(OC(N)=O)C(O)C(Oc2ccc3c(O)c(NC(=O)c4ccc(O)c(CC=C(C)C)c4)c(=O)oc3c2C)OC1(C)C, for which the viability, T/C was 89.3%.
For the compound `Nc1ccn(C2OC(CO)C(O)C2(F)F)c(=O)n1` (configuration not stated) + COC1C(OC(N)=O)C(O)C(Oc2ccc3c(O)c(NC(=O)c4ccc(O)c(CC=C(C)C)c4)c(=O)oc3c2C)OC1(C)C, the viability, T/C is 31.4%.
`O=c1[nH]cc(F)c(=O)[nH]1` + COC1C(OC(N)=O)C(O)C(Oc2ccc3c(O)c(NC(=O)c4ccc(O)c(CC=C(C)C)c4)c(=O)oc3c2C)OC1(C)C: the viability, T/C is 78%.

Staying with this assay, now noted: second compound 10 µM; first compound 0.00316 µM; stronger effect = lower value.
As for `C=CCn1c(=O)c2cnc(Nc3ccc(N4CCN(C)CC4)cc3)nc2n1-c1cccc(C(C)(C)O)n1` + COC1C(OC(N)=O)C(O)C(Oc2ccc3c(O)c(NC(=O)c4ccc(O)c(CC=C(C)C)c4)c(=O)oc3c2C)OC1(C)C, the viability, T/C was 127%.

Still in this assay, the particulars now being: second compound 10 µM; first compound 0.01 µM; stronger effect = lower value.
Regarding `C=CCn1c(=O)c2cnc(Nc3ccc(N4CCN(C)CC4)cc3)nc2n1-c1cccc(C(C)(C)O)n1` + COC1C(OC(N)=O)C(O)C(Oc2ccc3c(O)c(NC(=O)c4ccc(O)c(CC=C(C)C)c4)c(=O)oc3c2C)OC1(C)C, the viability, T/C was 116%.

Still in this assay, the particulars now being: second compound 10 µM; first compound 0.0316 µM; stronger effect = lower value.
On to `C=CCn1c(=O)c2cnc(Nc3ccc(N4CCN(C)CC4)cc3)nc2n1-c1cccc(C(C)(C)O)n1` + COC1C(OC(N)=O)C(O)C(Oc2ccc3c(O)c(NC(=O)c4ccc(O)c(CC=C(C)C)c4)c(=O)oc3c2C)OC1(C)C, for which the viability, T/C was 97.8%.
On to `CNCc1ccc(-c2[nH]c3cc(F)cc4c3c2CCNC4=O)cc1` + COC1C(OC(N)=O)C(O)C(Oc2ccc3c(O)c(NC(=O)c4ccc(O)c(CC=C(C)C)c4)c(=O)oc3c2C)OC1(C)C, for which the viability, T/C is 115%.
As for `Nc1ccn(C2OC(CO)C(O)C2(F)F)c(=O)n1` (configuration not stated) + COC1C(OC(N)=O)C(O)C(Oc2ccc3c(O)c(NC(=O)c4ccc(O)c(CC=C(C)C)c4)c(=O)oc3c2C)OC1(C)C, the viability, T/C is 72.5%.
For `O=c1[nH]cc(F)c(=O)[nH]1` + COC1C(OC(N)=O)C(O)C(Oc2ccc3c(O)c(NC(=O)c4ccc(O)c(CC=C(C)C)c4)c(=O)oc3c2C)OC1(C)C, the viability, T/C was 90.5%.

The same assay, now with this note: second compound 10 µM; first compound 0.1 µM; stronger effect = lower value.
Take `C=CCn1c(=O)c2cnc(Nc3ccc(N4CCN(C)CC4)cc3)nc2n1-c1cccc(C(C)(C)O)n1` + COC1C(OC(N)=O)C(O)C(Oc2ccc3c(O)c(NC(=O)c4ccc(O)c(CC=C(C)C)c4)c(=O)oc3c2C)OC1(C)C: the viability, T/C is 85.9%.
As to `CNCc1ccc(-c2[nH]c3cc(F)cc4c3c2CCNC4=O)cc1` + COC1C(OC(N)=O)C(O)C(Oc2ccc3c(O)c(NC(=O)c4ccc(O)c(CC=C(C)C)c4)c(=O)oc3c2C)OC1(C)C, the viability, T/C was 98.2%.
For the compound `Nc1ccn(C2OC(CO)C(O)C2(F)F)c(=O)n1` (configuration not stated) + COC1C(OC(N)=O)C(O)C(Oc2ccc3c(O)c(NC(=O)c4ccc(O)c(CC=C(C)C)c4)c(=O)oc3c2C)OC1(C)C, the viability, T/C is 60.2%.
In the case of `O=c1[nH]cc(F)c(=O)[nH]1` + COC1C(OC(N)=O)C(O)C(Oc2ccc3c(O)c(NC(=O)c4ccc(O)c(CC=C(C)C)c4)c(=O)oc3c2C)OC1(C)C, the viability, T/C was 103%.

Staying with this assay, now noted: second compound 10 µM; first compound 0.316 µM; stronger effect = lower value.
With `C=CCn1c(=O)c2cnc(Nc3ccc(N4CCN(C)CC4)cc3)nc2n1-c1cccc(C(C)(C)O)n1` + COC1C(OC(N)=O)C(O)C(Oc2ccc3c(O)c(NC(=O)c4ccc(O)c(CC=C(C)C)c4)c(=O)oc3c2C)OC1(C)C, the viability, T/C was 62.5%.
Regarding `CNCc1ccc(-c2[nH]c3cc(F)cc4c3c2CCNC4=O)cc1` + COC1C(OC(N)=O)C(O)C(Oc2ccc3c(O)c(NC(=O)c4ccc(O)c(CC=C(C)C)c4)c(=O)oc3c2C)OC1(C)C, the viability, T/C is 88.5%.
Turning to `Nc1ccn(C2OC(CO)C(O)C2(F)F)c(=O)n1` (configuration not stated) + COC1C(OC(N)=O)C(O)C(Oc2ccc3c(O)c(NC(=O)c4ccc(O)c(CC=C(C)C)c4)c(=O)oc3c2C)OC1(C)C, the viability, T/C was 52.7%.
Take `O=c1[nH]cc(F)c(=O)[nH]1` + COC1C(OC(N)=O)C(O)C(Oc2ccc3c(O)c(NC(=O)c4ccc(O)c(CC=C(C)C)c4)c(=O)oc3c2C)OC1(C)C: the viability, T/C is 87.8%.

Still in this assay, the particulars now being: second compound 10 µM; first compound 1 µM; stronger effect = lower value.
With `C=CCn1c(=O)c2cnc(Nc3ccc(N4CCN(C)CC4)cc3)nc2n1-c1cccc(C(C)(C)O)n1` + COC1C(OC(N)=O)C(O)C(Oc2ccc3c(O)c(NC(=O)c4ccc(O)c(CC=C(C)C)c4)c(=O)oc3c2C)OC1(C)C, the viability, T/C is 51.8%.
Regarding `CNCc1ccc(-c2[nH]c3cc(F)cc4c3c2CCNC4=O)cc1` + COC1C(OC(N)=O)C(O)C(Oc2ccc3c(O)c(NC(=O)c4ccc(O)c(CC=C(C)C)c4)c(=O)oc3c2C)OC1(C)C, the viability, T/C was 83.4%.
On to `Nc1ccn(C2OC(CO)C(O)C2(F)F)c(=O)n1` (configuration not stated) + COC1C(OC(N)=O)C(O)C(Oc2ccc3c(O)c(NC(=O)c4ccc(O)c(CC=C(C)C)c4)c(=O)oc3c2C)OC1(C)C, for which the viability, T/C is 45.3%.
For `O=c1[nH]cc(F)c(=O)[nH]1` + COC1C(OC(N)=O)C(O)C(Oc2ccc3c(O)c(NC(=O)c4ccc(O)c(CC=C(C)C)c4)c(=O)oc3c2C)OC1(C)C, the viability, T/C is 89.7%.

The same assay, now with this note: second compound 10 µM; first compound 3.16 µM; stronger effect = lower value.
On to `CNCc1ccc(-c2[nH]c3cc(F)cc4c3c2CCNC4=O)cc1` + COC1C(OC(N)=O)C(O)C(Oc2ccc3c(O)c(NC(=O)c4ccc(O)c(CC=C(C)C)c4)c(=O)oc3c2C)OC1(C)C, for which the viability, T/C is 104%.
With `Nc1ccn(C2OC(CO)C(O)C2(F)F)c(=O)n1` (configuration not stated) + COC1C(OC(N)=O)C(O)C(Oc2ccc3c(O)c(NC(=O)c4ccc(O)c(CC=C(C)C)c4)c(=O)oc3c2C)OC1(C)C, the viability, T/C was 42.6%.
On to `O=c1[nH]cc(F)c(=O)[nH]1` + COC1C(OC(N)=O)C(O)C(Oc2ccc3c(O)c(NC(=O)c4ccc(O)c(CC=C(C)C)c4)c(=O)oc3c2C)OC1(C)C, for which the viability, T/C is 70.5%.

The same assay, now with this note: second compound 10 µM; first compound 10 µM; stronger effect = lower value.
For the compound `CNCc1ccc(-c2[nH]c3cc(F)cc4c3c2CCNC4=O)cc1` + COC1C(OC(N)=O)C(O)C(Oc2ccc3c(O)c(NC(=O)c4ccc(O)c(CC=C(C)C)c4)c(=O)oc3c2C)OC1(C)C, the viability, T/C was 84%.
In the case of `Nc1ccn(C2OC(CO)C(O)C2(F)F)c(=O)n1` (configuration not stated) + COC1C(OC(N)=O)C(O)C(Oc2ccc3c(O)c(NC(=O)c4ccc(O)c(CC=C(C)C)c4)c(=O)oc3c2C)OC1(C)C, the viability, T/C is 30.5%.
Take `O=c1[nH]cc(F)c(=O)[nH]1` + COC1C(OC(N)=O)C(O)C(Oc2ccc3c(O)c(NC(=O)c4ccc(O)c(CC=C(C)C)c4)c(=O)oc3c2C)OC1(C)C: the viability, T/C is 69.8%.
